Legend:
Experiment in all cases: relative viability (nuclei count vs DMSO), 5 days (fraction); higher = more cells survive
Elesclomol + Phenformin = compound: CN(NC(=O)CC(=O)NN(C)C(=S)c1ccccc1)C(=S)c1ccccc1 [Elesclomol] + N=C(N)NC(=N)NCCc1ccccc1 [Phenformin] (partner 250 µM)
Procedure, shortened: (§1)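 For relative viability, nuclei counts in treated wells were divided by those in vehicle wells. Lung cancer cell lines had been pin-tool dosed in 1536-well plates the day after seeding and cultured for 5 days, then fixed and stained in one step (final 0.05% Triton X-100, 1% formaldehyde, 1 ug/ml Hoechst) and imaged at 4×. Doses were one drug alone or a fixed anchor-drug dose plus five library-drug doses (not always all listed) in √10 steps, and values are duplicate-plate medians.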

Elesclomol + Crizotinib = compound: CN(NC(=O)CC(=O)NN(C)C(=S)c1ccccc1)C(=S)c1ccccc1 [Elesclomol] + C[C@@H](Oc1cc(-c2cnn(C3CCNCC3)c2)cnc1N)c1c(Cl)ccc(F)c1Cl [Crizotinib] (partner 1 µM)
Procedure, shortened: as §1

Elesclomol + Foretinib = compound: CN(NC(=O)CC(=O)NN(C)C(=S)c1ccccc1)C(=S)c1ccccc1 [Elesclomol] + COc1cc2c(Oc3ccc(NC(=O)C4(C(=O)Nc5ccc(F)cc5)CC4)cc3F)ccnc2cc1OCCCN1CCOCC1 [Foretinib] (partner 0.25 µM)
Procedure, shortened: as §1

Elesclomol + Linsitinib = compound: CN(NC(=O)CC(=O)NN(C)C(=S)c1ccccc1)C(=S)c1ccccc1 [Elesclomol] + C[C@]1(O)C[C@@H](c2nc(-c3ccc4ccc(-c5ccccc5)nc4c3)c3c(N)nccn32)C1 [Linsitinib] (partner 1 µM)
Procedure, shortened: as §1

Elesclomol = compound: CN(NC(=O)CC(=O)NN(C)C(=S)c1ccccc1)C(=S)c1ccccc1 [Elesclomol]
Procedure, shortened: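 On vehicle-anchored 1536-well plates, lung cancer cell lines held overnight at 37 °C were pinned with five library-drug doses (not always all listed) spaced by √10. With no medium change over 5 days, they were then fixed, permeabilised and Hoechst-stained in one step and imaged at 4×. MetaXpress counted nuclei, and viability is the median across plates of treated-well over vehicle-well nuclei. Acceptance needed control CV below 25% and at least one doubling.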

Cell Line	relative viability (Elesclomol + Phenformin; first compound 0.003162 µM)	relative viability (Elesclomol + Phenformin; first compound 0.01 µM)	relative viability (Elesclomol + Phenformin; first compound 0.03162 µM)	relative viability (Elesclomol + Phenformin; first compound 0.1 µM)	relative viability (Elesclomol + Crizotinib; first compound 0.003162 µM)	relative viability (Elesclomol + Crizotinib; first compound 0.01 µM)	relative viability (Elesclomol + Crizotinib; first compound 0.03162 µM)	relative viability (Elesclomol + Crizotinib; first compound 0.1 µM)	relative viability (Elesclomol + Foretinib; first compound 0.003162 µM)	relative viability (Elesclomol + Foretinib; first compound 0.01 µM)	relative viability (Elesclomol + Foretinib; first compound 0.03162 µM)	relative viability (Elesclomol + Foretinib; first compound 0.1 µM)	relative viability (Elesclomol + Linsitinib; first compound 0.003162 µM)	relative viability (Elesclomol + Linsitinib; first compound 0.01 µM)	relative viability (Elesclomol + Linsitinib; first compound 0.03162 µM)	relative viability (Elesclomol + Linsitinib; first compound 0.1 µM)	relative viability (Elesclomol; 0.003162 µM)	relative viability (Elesclomol; 0.01 µM)	relative viability (Elesclomol; 0.03162 µM)	relative viability (Elesclomol; 0.1 µM)
LCLC-103H	0.355	0.275	0.384	0.292	0.948	0.937	0.993	1.02	0.771	0.768	0.862	0.487	1.11	1.02	1.01	1.07	1	0.856	0.993	0.842
NCI-H1915	0.37		0.38	0.371	0.888		0.895	0.759	1.05		1.08	0.793	1.09		1.05	0.971	0.994		1	0.606
ChaGo-K-1	0.503	0.393	0.275	0.174	0.596	0.376	0.288	0.258	0.838	0.95	0.34	0.186					0.947	0.952	0.663	0.199
NCI-H1703					0.151	0.137	0.0928	0.0853	0.26	0.207	0.129	0.133	0.179	0.122	0.0723	0.0652	0.273	0.173	0.0832	0.101
NCI-H1793	0.302	0.35	0.335	0.247					0.613	0.618	0.658	0.193	0.901	0.733	0.927	0.25	0.893	0.635	0.892	0.251
NCI-H1650	0.315	0.211	0.173	0.133	0.325	0.221	0.255	0.122	0.525	0.306	0.132	0.136					0.394	0.281	0.16	0.114
NCI-H1395	0.45	0.364	0.296	0.27					1.06	0.665	0.332	0.324	0.857	0.347	0.716	0.26	0.972	0.475	0.279	0.265
NCI-H1792	0.342		0.339	0.118	0.939	0.945	1	1.01					0.506	0.387	0.584	0.577	0.916	0.51	0.762	0.513
IA-LM					0.746	0.343	0.0493	0.0241	1.13	0.54	0.0372	0.009	0.47	0.265	0.134	0.022	0.855	0.374	0.0911	0.0299

From the supplement of paper PMC10307832
